{
  "source": "patent US11535754B2",
  "about": "“Silicon containing detectable compounds and uses thereof” (Singular Genomics Systems, Inc., priority 2019, dated 2022)",
  "test": "Absorption maximum (λmax) of the azasiline dyes, from the HPLC / LC-MS absorption profile",
  "type": "physicochemical",
  "settings": "absorption profile from HPLC/LC-MS analysis (FIGS. 1A-1B: 100 mM TEAA and ACN); value for compound 4 from initial attempts to quantify the absorption",
  "experimental": "FIGS. 1A-1B. Absorption profile for compound 2 (FIG. 1A) and compound 3 (FIG. 1B), as described herein: HPLC chromatogram of the reaction mixture with 100 mM triethylammonium acetate (TEAA) and acetonitrile (ACN).\nA mixture of 1a (0.155 mmol) and hydrochloric acid (0.053 mL) in absolute ethanol (1.6 mL) was cooled to 0° C., to which a solution of sodium nitrite (12.1 mg in 0.107 mL) in water was added and stirred for 3 hours after which the solid (dark green crystals) was filtered off. It was diluted with ethanol (1 mL) and 0.02 mL of 1N HCl was added to the mixture. The resulting mixture was refluxed for 4 hours. The progress of the reaction was monitored by HPLC using triethylammonium acetate (TEAA) and acetonitrile (ACN) as the mobile phases on reverse phase (RP) C18 column. The formation of the product was confirmed by mass analysis and HPLC analysis based on the wavelength (see FIG. TA). […]\nSynthesis of compound 3. […] The reaction mixture was stirred for overnight and the progress of the reaction was monitored by LC-MS analysis to generate compound 3 (λmax 810 nm); see FIG. 1B.\nSynthesis of compound 4. […] The reaction mixture was stirred for overnight and the progress of the reaction was monitored by LC-MS analysis to generate and confirm the presence of compound 4.",
  "data": [
    {"molecule": "CN1CCCc2cc3c(cc21)[Si](C)(C)c1cc2c(cc1=N3)CCC[N+]=2C", "note": "[compound 4]", "values": [
      {"measurement": "absorption maximum (λmax)", "result": "greater than 850 nm"}
    ]}
  ]
}
